Data published in US20220088016A1, “CANCER TREATMENT USING MULTI-TARGETED KINASE INHIBITOR IN COMBINATION OF PROTEIN KINASE BIOMARKERS” (ZHEJIANG CROWNMAB BIOTECH CO. LTD., priority 2019, published 2022).

Experiments:
CSF1R-autoinhibited = CSF1R-autoinhibited (Homo sapiens, UniProt P07333); test: Kinase profiling; assay type: binding; conditions: read-out: % Ctrl @ 1000 nM
NIK = target: T1, NIK (Homo sapiens, UniProt Q99558); test: Kinase profiling; assay type: binding; conditions: read-out: % Ctrl @ 1000 nM
T1 construct: T7 phage fusion (said for most assays); made in house
T1 sequence (Q99558 whole entry, the tested form may be a part): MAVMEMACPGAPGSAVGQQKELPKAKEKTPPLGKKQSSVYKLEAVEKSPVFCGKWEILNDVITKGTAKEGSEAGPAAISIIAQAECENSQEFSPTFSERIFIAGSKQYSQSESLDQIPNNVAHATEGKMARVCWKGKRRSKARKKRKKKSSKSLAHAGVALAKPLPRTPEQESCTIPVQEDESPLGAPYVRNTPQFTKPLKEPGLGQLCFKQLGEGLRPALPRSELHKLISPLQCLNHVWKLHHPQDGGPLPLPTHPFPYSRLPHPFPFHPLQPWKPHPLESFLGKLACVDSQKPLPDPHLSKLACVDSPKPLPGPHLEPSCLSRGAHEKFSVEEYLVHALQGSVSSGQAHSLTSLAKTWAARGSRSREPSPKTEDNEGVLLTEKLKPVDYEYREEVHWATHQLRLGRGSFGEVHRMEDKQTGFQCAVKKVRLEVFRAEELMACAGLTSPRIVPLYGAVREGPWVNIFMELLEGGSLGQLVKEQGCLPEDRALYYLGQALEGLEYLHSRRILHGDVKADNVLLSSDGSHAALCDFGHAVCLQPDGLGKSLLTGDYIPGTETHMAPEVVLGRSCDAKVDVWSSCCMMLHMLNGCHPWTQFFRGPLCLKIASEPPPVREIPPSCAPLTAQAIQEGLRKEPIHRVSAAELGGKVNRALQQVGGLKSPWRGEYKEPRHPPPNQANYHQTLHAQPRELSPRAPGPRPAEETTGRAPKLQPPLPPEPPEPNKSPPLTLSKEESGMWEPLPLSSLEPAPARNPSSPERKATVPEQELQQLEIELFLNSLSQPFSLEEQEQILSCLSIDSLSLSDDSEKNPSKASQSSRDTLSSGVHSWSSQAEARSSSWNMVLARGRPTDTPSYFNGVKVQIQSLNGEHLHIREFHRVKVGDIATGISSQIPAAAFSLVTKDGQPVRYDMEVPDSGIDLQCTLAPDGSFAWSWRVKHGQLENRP

RIOK1 = RIOK1 (Homo sapiens, UniProt Q9BRS2); test: Kinase profiling; assay type: binding; conditions: read-out: % Ctrl @ 1000 nM
NEK11 = target: T2, NEK11 (Homo sapiens, UniProt Q8NG66); test: Kinase profiling; assay type: binding; conditions: read-out: % Ctrl @ 1000 nM
T2 construct: T7 phage fusion (said for most assays); made in house

SRPK1 = SRPK1 (Homo sapiens, UniProt Q96SB4); test: Kinase profiling; assay type: binding; conditions: read-out: % Ctrl @ 1000 nM
DYRK1A = DYRK1A (Homo sapiens, UniProt Q13627); test: Kinase profiling; assay type: binding; conditions: read-out: % Ctrl @ 1000 nM
MAP3K1 = MAP3K1 (Homo sapiens, UniProt Q13233); test: Kinase profiling; assay type: binding; conditions: read-out: % Ctrl @ 1000 nM
TXK = TXK (Homo sapiens, UniProt P42681); test: Kinase profiling; assay type: binding; conditions: read-out: % Ctrl @ 1000 nM
QSK = QSK (Homo sapiens, UniProt Q9Y2K2); test: Kinase profiling; assay type: binding; conditions: read-out: % Ctrl @ 1000 nM
CSF1R = CSF1R (Homo sapiens, UniProt P07333); test: Kinase profiling; assay type: binding; conditions: read-out: % Ctrl @ 1000 nM
TSSK1B = TSSK1B (Homo sapiens, UniProt Q9BXA7); test: Kinase profiling; assay type: binding; conditions: read-out: % Ctrl @ 1000 nM
TSSK1B, sequence (Q9BXA7 whole entry): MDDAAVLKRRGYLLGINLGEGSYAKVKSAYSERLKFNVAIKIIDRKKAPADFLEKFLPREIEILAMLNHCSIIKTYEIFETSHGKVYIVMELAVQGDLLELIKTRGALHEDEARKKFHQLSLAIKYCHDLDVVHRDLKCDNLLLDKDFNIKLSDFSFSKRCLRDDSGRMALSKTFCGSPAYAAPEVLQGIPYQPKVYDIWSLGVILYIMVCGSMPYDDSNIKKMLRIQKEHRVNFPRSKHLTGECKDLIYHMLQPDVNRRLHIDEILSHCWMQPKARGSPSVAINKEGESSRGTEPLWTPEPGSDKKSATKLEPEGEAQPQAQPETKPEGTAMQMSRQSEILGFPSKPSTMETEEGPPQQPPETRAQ

PIP5K2B = PIP5K2B (Homo sapiens, UniProt P78356); test: Kinase profiling; assay type: binding; conditions: read-out: % Ctrl @ 1000 nM
PIP5K2B, sequence (P78356 whole entry): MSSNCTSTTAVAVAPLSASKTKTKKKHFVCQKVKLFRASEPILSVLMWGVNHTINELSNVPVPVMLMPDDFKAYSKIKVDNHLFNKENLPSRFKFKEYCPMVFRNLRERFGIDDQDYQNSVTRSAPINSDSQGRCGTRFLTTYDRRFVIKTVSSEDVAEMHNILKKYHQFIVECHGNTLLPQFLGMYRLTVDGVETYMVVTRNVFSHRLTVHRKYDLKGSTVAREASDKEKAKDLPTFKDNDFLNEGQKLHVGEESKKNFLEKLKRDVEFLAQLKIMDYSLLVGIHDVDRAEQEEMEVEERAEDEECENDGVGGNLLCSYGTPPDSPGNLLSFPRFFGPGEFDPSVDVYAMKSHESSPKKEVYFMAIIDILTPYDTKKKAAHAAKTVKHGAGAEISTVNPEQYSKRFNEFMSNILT

PYK2 = PYK2 (Homo sapiens, UniProt Q14289); test: Kinase profiling; assay type: binding; conditions: read-out: % Ctrl @ 1000 nM
ZAP70 = ZAP70 (Homo sapiens, UniProt P43403); test: Kinase profiling; assay type: binding; conditions: read-out: % Ctrl @ 1000 nM
GCN2 (Kin.Dom.2, S808G) = GCN2 (Kin.Dom.2, S808G) (Homo sapiens, UniProt Q9P2K8, S808G); test: Kinase profiling; assay type: binding; conditions: read-out: % Ctrl @ 1000 nM
GCN2 (Kin.Dom.2, S808G), sequence (Q9P2K8 590-1001 S808G limits assumed): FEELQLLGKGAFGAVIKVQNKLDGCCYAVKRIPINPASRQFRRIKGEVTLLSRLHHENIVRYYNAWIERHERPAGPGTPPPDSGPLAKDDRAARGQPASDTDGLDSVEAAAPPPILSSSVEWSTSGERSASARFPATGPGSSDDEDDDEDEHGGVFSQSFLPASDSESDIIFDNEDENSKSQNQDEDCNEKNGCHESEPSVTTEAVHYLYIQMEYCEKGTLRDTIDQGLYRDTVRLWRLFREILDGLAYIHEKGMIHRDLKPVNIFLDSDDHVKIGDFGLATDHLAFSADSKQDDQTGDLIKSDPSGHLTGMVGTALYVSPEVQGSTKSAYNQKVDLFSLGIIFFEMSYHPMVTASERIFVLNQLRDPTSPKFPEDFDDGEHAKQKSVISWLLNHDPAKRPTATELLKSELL

[1] = target: ABL1 (T315I)-nonphosphorylated (Homo sapiens, UniProt P00519, T315I); test: Kinase profiling; assay type: binding; conditions: read-out: % Ctrl @ 1000 nM
AKT3 = AKT3 (Homo sapiens, UniProt Q9Y243); test: Kinase profiling; assay type: binding; conditions: read-out: % Ctrl @ 1000 nM
AKT3, sequence (Q9Y243 whole entry): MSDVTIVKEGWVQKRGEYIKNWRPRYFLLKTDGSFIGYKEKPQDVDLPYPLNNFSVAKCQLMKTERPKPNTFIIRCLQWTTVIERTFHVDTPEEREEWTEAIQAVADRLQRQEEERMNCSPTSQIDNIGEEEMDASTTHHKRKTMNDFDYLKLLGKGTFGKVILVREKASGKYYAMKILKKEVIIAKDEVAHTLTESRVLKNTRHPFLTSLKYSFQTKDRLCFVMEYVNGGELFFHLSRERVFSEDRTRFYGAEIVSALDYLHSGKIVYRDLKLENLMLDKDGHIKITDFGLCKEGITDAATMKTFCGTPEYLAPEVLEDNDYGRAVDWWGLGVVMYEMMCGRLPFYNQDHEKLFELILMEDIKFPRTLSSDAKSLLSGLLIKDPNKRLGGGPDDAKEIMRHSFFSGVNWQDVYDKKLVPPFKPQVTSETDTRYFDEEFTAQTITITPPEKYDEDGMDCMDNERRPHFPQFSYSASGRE

DCAMKL3 = DCAMKL3 (Homo sapiens, UniProt Q9C098); test: Kinase profiling; assay type: binding; conditions: read-out: % Ctrl @ 1000 nM
DCAMKL3, sequence (Q9C098 whole entry): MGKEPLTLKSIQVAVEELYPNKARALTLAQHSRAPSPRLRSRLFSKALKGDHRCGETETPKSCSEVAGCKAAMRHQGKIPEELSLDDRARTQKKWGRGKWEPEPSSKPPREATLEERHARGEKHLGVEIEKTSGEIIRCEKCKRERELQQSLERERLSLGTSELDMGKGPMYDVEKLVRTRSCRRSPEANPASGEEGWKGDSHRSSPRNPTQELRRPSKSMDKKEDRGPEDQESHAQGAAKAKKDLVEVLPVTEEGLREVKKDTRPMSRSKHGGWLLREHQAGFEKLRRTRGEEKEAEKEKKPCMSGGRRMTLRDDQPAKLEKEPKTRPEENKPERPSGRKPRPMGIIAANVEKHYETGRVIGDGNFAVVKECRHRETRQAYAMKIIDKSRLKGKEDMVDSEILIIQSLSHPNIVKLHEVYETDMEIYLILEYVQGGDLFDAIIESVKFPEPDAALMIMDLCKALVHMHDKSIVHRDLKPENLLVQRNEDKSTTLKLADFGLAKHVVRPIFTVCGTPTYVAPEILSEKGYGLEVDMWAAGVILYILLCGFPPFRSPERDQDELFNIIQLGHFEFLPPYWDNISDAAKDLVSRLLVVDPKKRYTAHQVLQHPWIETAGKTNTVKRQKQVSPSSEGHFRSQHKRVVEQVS

PIK3CA (I800L) = PIK3CA (I800L) (Homo sapiens, UniProt P42336, I800L); test: Kinase profiling; assay type: binding; conditions: read-out: % Ctrl @ 1000 nM
[2] = tested on: CD8 (T cell surface marker); test: CD8 IHC test in MC-38 tumor; assay type: in vivo, mouse; conditions: MC-38 tumors; vs vehicle group
Method: (§1) MC38 tumor tissues were collected at the end of the in vivo efficacy trial. The tumor tissue was then embedded in paraffin. The expression of CD3/CD4/CD8/F4-80 were tested by immunohistochemistry stain.

PKN1 = PKN1 (Homo sapiens, UniProt Q16512); test: Kinase profiling; assay type: binding; conditions: read-out: % Ctrl @ 1000 nM
GRK4 = GRK4 (Homo sapiens, UniProt P32298); test: Kinase profiling; assay type: binding; conditions: read-out: % Ctrl @ 1000 nM
SGK = SGK (Homo sapiens, UniProt O00141); test: Kinase profiling; assay type: binding; conditions: read-out: % Ctrl @ 1000 nM
PAK7 = PAK7 (Homo sapiens, UniProt Q9P286); test: Kinase profiling; assay type: binding; conditions: read-out: % Ctrl @ 1000 nM
RET (V804L) = RET (V804L) (Homo sapiens, UniProt P07949, V804L); test: Kinase profiling; assay type: binding; conditions: read-out: % Ctrl @ 1000 nM
RAF1 = RAF1 (Homo sapiens, UniProt P04049); test: Kinase profiling; assay type: binding; conditions: read-out: % Ctrl @ 1000 nM
RAF1, sequence (P04049 whole entry): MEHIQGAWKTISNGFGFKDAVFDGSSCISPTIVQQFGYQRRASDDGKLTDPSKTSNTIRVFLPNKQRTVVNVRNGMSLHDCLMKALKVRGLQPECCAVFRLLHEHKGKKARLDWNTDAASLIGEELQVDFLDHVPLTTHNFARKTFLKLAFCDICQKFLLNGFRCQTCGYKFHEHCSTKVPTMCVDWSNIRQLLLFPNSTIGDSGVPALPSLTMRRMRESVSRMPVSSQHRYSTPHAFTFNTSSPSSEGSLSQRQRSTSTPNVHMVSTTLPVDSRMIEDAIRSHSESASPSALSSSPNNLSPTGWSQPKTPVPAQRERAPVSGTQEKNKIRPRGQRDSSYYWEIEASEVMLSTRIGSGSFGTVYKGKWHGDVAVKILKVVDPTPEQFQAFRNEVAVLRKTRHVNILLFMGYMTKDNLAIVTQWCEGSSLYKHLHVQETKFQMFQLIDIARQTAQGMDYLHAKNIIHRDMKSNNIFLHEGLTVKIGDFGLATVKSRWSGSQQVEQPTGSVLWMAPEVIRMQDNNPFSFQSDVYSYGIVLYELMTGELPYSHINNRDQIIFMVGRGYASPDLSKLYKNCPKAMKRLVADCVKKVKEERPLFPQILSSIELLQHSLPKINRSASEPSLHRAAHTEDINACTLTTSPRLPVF

[3] = tested on: F4-80 (surface marker of macrophages); test: F4-80 IHC test in MC-38 tumor; set-up: species or system mouse; conditions: end of in vivo efficacy trial; vs vehicle group
Method: as §1

PAK1 = PAK1 (Homo sapiens, UniProt Q13153); test: Kinase profiling; assay type: binding; conditions: read-out: % Ctrl @ 1000 nM
PAK1, sequence (Q13153 whole entry): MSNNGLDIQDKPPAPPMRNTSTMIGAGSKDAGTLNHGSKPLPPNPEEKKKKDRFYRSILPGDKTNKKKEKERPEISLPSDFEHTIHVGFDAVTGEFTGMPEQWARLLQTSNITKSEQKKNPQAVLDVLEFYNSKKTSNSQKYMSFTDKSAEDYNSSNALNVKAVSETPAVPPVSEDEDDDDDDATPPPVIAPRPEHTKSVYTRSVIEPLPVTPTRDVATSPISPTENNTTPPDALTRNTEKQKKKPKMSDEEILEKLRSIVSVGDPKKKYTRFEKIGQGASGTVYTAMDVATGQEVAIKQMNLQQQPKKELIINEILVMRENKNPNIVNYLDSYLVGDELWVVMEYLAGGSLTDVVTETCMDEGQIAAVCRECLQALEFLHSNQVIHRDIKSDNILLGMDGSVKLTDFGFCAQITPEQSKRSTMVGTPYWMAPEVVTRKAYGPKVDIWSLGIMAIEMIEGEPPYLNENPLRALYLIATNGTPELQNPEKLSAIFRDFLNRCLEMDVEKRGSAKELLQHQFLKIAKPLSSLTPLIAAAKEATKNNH

[4] = target: RSK4 (Kin.Dom.2-C-terminal) (Homo sapiens, UniProt Q9UK32); test: Kinase profiling; assay type: binding; conditions: read-out: % Ctrl @ 1000 nM
MST1R = target: T3, MST1R (Homo sapiens, UniProt Q04912); test: Kinase profiling; assay type: binding; conditions: read-out: % Ctrl @ 1000 nM
T3 construct: T7 phage fusion (stated for most kinases of the panel only); made in house; host or cells: T7 phage in E. coli (BL21-derived) or HEK-293 cells

AMPK-alpha1 = AMPK-alpha1 (Homo sapiens, UniProt Q13131); test: Kinase profiling; assay type: binding; conditions: read-out: % Ctrl @ 1000 nM
[5] = target: TYK2 (JH2domain-pseudokinase) (Homo sapiens, UniProt P29597); test: Kinase profiling; assay type: binding; conditions: read-out: % Ctrl @ 1000 nM
ERK1 = ERK1 (Homo sapiens, UniProt P27361); test: Kinase profiling; assay type: binding; conditions: read-out: % Ctrl @ 1000 nM
ERK1, sequence (P27361 whole entry): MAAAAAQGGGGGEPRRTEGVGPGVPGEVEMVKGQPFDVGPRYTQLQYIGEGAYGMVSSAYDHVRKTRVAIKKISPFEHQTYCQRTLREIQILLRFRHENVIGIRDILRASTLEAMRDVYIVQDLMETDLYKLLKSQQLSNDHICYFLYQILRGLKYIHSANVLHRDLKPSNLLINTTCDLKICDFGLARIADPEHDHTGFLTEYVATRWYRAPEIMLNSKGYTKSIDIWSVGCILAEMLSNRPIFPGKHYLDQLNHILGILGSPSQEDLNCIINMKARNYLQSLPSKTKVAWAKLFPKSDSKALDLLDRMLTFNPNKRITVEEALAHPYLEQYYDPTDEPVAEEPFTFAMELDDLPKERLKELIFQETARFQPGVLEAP

[6] = target: RSK4 (Kin.Dom.1-N-terminal) (Homo sapiens, UniProt Q9UK32); test: Kinase profiling; assay type: binding; conditions: read-out: % Ctrl @ 1000 nM
PIK3CA = PIK3CA (Homo sapiens, UniProt P42336); test: Kinase profiling; assay type: binding; conditions: read-out: % Ctrl @ 1000 nM
MET (Y1235D) = target: T4, MET (Y1235D) (Homo sapiens, UniProt P08581, Y1235D); test: Kinase profiling; assay type: binding; conditions: read-out: % Ctrl @ 1000 nM
T4 construct: T7 phage fusion (stated for most kinases of the panel only); made in house; host or cells: T7 phage in E. coli (BL21-derived) or HEK-293 cells

PKN2 = PKN2 (Homo sapiens, UniProt Q16513); test: Kinase profiling; assay type: binding; conditions: read-out: % Ctrl @ 1000 nM

`Cc1cc(Oc2cc(NC(=O)C3CC3)ncn2)ccc1NC(=O)Nc1ccc(Cl)c(C(F)(F)F)c1` [CBT-102] gave a remaining activity at 1 µM (CSF1R-autoinhibited) of 60%, a remaining activity at 1 µM (NIK) of 100% and a remaining activity at 1 µM (RIOK1) of 54%. It also gave a remaining activity at 1 µM (NEK11) of 100%, a remaining activity at 1 µM (SRPK1) of 56% and a remaining activity at 1 µM (DYRK1A) of 97%. The remaining activity at 1 µM (MAP3K1) was 83%, the remaining activity at 1 µM (TXK) was 100% and the remaining activity at 1 µM (QSK) was 91%. The remaining activity at 1 µM (CSF1R) was 0%, the remaining activity at 1 µM (TSSK1B) was 87% and the remaining activity at 1 µM (PIP5K2B) was 99%. The remaining activity at 1 µM (PYK2) was 93%, the remaining activity at 1 µM (ZAP70) was 90% and the remaining activity at 1 µM (GCN2 (Kin.Dom.2, S808G)) was 100%. It also gave a remaining activity at 1 µM [1] of 2.3%, a remaining activity at 1 µM (AKT3) of 97% and a remaining activity at 1 µM (DCAMKL3) of 100%. For the same compound, the remaining activity at 1 µM (PIK3CA (I800L)) was 91%, the “effect on T cell surface marker CD8 (IHC)” value [2] was “no significant effect” and the remaining activity at 1 µM (PKN1) was 100%. It also gave a remaining activity at 1 µM (GRK4) of 100%, a remaining activity at 1 µM (SGK) of 100% and a remaining activity at 1 µM (PAK7) of 91%. For the same compound, the remaining activity at 1 µM (RET (V804L)) was 42%, the remaining activity at 1 µM (RAF1) was 3.4% and the “F4-80 IHC score (%) in MC-38 tumor tissue” value [3] was “significantly reduced”. It also gave a remaining activity at 1 µM (PAK1) of 100%, a remaining activity at 1 µM [4] of 73% and a remaining activity at 1 µM (MST1R) of 89%. For the same compound, the remaining activity at 1 µM (AMPK-alpha1) was 98%, the remaining activity at 1 µM [5] was 100% and the remaining activity at 1 µM (ERK1) was 91%. For the same compound, the remaining activity at 1 µM [6] was 100%, the remaining activity at 1 µM (PIK3CA) was 100% and the remaining activity at 1 µM (MET (Y1235D)) was 79%. For the same compound, the remaining activity at 1 µM (PKN2) was 100%.
